From ChEMBL document CHEMBL1140084, “Discovery and evaluation of 4-(2-(4-chloro-1H-pyrazol-1-yl)ethylamino)-3-(6-(1-(3-fluoropropyl)piperidin-4-yl)-4-methyl-1H-benzo[d]imidazol-2-yl)pyridin-2(1H)-one (BMS-695735), an orally efficacious inhibitor of insulin-like growth factor-1 receptor kinase with broad spectrum in vivo antitumor …” (J Med Chem, 2008)

Legend:
[1] = Antiproliferative activity against transgenic mouse SAL cells overexpressing human IGF1R assessed as [3H]thymidine incorporation after 72 hrs
Cytochrome P450 3A4 = Cytochrome P450 3A4 (Homo sapiens, UniProt P08684); experiment: Inhibition of human recombinant CYP3A4 in human liver microsomes using BFC as a substrate
[2] = target: T1, Nuclear receptor subfamily 1 group I member 2 (Homo sapiens, UniProt O75469); experiment: Induction of PXR transactivation
T1 sequence (O75469 whole entry): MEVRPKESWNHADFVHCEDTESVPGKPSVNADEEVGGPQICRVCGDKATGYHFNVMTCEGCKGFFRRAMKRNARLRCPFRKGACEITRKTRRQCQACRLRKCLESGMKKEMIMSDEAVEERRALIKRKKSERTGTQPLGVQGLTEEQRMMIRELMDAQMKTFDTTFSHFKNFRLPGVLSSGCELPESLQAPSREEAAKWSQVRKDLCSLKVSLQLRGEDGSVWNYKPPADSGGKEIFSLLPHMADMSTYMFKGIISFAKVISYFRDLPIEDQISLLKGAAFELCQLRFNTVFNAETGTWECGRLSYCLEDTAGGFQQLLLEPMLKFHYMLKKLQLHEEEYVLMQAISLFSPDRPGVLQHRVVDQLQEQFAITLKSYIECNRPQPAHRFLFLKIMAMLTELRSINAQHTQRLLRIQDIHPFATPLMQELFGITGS

[3] = AUC in mouse at 20 mg/kg after 4 hrs; assay type: ADME, organism-based; set-up: time < 4 hr, dose 20 mg/kg; conditions: plasma
Hepatocyte = experiment: Increase in CYP3A4 mRNA expression level in human hepatocytes; assay type: functional, cell-based
[4] = Protein binding in mouse plasma at 10 uM by equilibrium dialysis; assay type: ADME, cell-free; conditions: read-out: PPB (converted)
[5] = target: PXR (nuclear receptor subfamily 1 group I member 2) (Homo sapiens, UniProt O75469); experiment: Induction of PXR transactivation at 10 uM relative to rifampicin; conditions: read-out: Activity
[6] = Apparent permeability across human CaCo2 cells; assay type: ADME, cell-based; conditions: Caco-2
[7] = Protein binding in human plasma at 10 uM; assay type: ADME, cell-free; conditions: read-out: PPB

Cytochrome P450 3A4, sequence (P08684 whole entry): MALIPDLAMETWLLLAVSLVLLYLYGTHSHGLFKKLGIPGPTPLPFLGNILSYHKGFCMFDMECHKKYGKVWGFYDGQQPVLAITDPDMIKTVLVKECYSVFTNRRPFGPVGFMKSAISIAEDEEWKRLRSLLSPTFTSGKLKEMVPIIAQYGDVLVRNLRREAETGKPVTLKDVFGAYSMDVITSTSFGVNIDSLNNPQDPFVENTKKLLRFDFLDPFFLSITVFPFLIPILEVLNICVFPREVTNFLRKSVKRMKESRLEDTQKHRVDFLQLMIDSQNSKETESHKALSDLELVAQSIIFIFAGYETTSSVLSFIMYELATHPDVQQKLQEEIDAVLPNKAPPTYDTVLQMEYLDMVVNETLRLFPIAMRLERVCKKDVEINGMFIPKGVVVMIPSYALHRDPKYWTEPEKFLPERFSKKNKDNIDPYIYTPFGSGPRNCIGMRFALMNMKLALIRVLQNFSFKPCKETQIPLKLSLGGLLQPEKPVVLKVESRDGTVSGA

COCCN1CCC(c2cc(C)c3nc(-c4c(NC[C@@H](O)c5cccc(Cl)c5)cc[nH]c4=O)[nH]c3c2)CC1
IC50 [1]: 0.217 µM
IC50 (Cytochrome P450 3A4): 11 µM
EC20 [2]: > 50 µM

Cc1cc(C2CCN(C)CC2)cc2[nH]c(-c3c(NC[C@@H](O)c4cccc(Cl)c4)cc[nH]c3=O)nc12
IC50 [1]: 0.085 µM
IC50 (Cytochrome P450 3A4): 14 µM
EC20 [2]: > 50 µM
AUC at 4 h [3]: 1.2 µM·h

COc1ccc([C@H](O)CNc2cc[nH]c(=O)c2-c2nc3c(C)cc(C4CCN(CCCF)CC4)cc3[nH]2)cc1Cl
IC50 [1]: 0.04 µM
IC50 (Cytochrome P450 3A4): 10 µM
EC20 [2]: > 50 µM
AUC at 4 h [3]: 0.28 µM·h

Cc1cc(C2CCN(C)CC2)cc2[nH]c(-c3c(NCCn4cc(Cl)cn4)cc[nH]c3=O)nc12
IC50 [1]: 0.162 µM
IC50 (Cytochrome P450 3A4): 40 µM
EC20 [2]: > 50 µM
AUC at 4 h [3]: 0.4 µM·h

Cc1cc(N2CCOCC2)cc2[nH]c(-c3c(NC[C@@H](O)c4cccc(Cl)c4)cc[nH]c3=O)nc12
IC50 [1]: 0.11 µM
EC20 [2]: 1.1 µM
AUC at 4 h [3]: 50 µM·h
Activity (Hepatocyte): Dose-dependent effect
fraction unbound at 10 µM [4]: < 0.001
activity at 10 µM [5]: 125%
Papp [6]: 1.8 ×10⁻⁶ cm/s
fraction unbound at 10 µM [7]: < 0.002
